According to US10782295B2, “Cysteine-reactive ligand discovery in proteomes” (THE SCRIPPS RESEARCH INSTITUTE, priority 2013, dated 2020):

Experiments:
[1] = competitive isoTOP-ABPP, proteome-wide cysteine reactivity; type: binding, human; details: for proteome reactivity profile, high sensitivity (R>5) cysteine targets: 100 μM LDE, 60 min
Experimental: (§1) Here, we envisioned that isoTOP-ABPP could be advanced to discover and quantify reactions between cysteines in proteomes and any electrophilic compound. In this advanced, ‘competitive’ version of isoTOP-ABPP (FIG. 1a), a proteome is treated with an electrophile (experimental sample) or DMSO (control sample). Both proteomic samples are then labeled with the IA probe and conjugated by CuAAC to light and heavy azide-biotin tags, respectively. The light and heavy samples are then mixed and subjected to our described isoTOP-ABPP protocol for enrichment, identification, and quantification of IA-labeled cysteines^30. Electrophile-modified cysteines are quantified by measuring the MS1 chromatographic peak ratios (R values) for heavy (DMSO-treated) over light (electrophile-treated) samples, with higher R values reflecting greater sensitivity to the electrophile. In this format, competitive isoTOP-ABPP can assay electrophiles against 1000+ cysteines in parallel directly in native proteomes without requiring any chemical modification to the electrophiles themselves.
(§2) Competitive isoTOP-ABPP experiments were performed in quadruplicate using the soluble proteome of the human breast cancer cell line MDA-MB-231 cell line. Proteomes were treated with 100 μM HNE, 15d-PGJ2, or 2-HD, for 60 minutes, followed by the IA-probe (100 μM, 60 min) A total of ˜1400 cysteine reactivities were quantified across the aggregate data set, with at least 900 cysteine reactivities quantified for each LDE (FIG. 2a) more than 750 of which were quantified for all the three electrophiles.
(§3) The MDA-MB-231 cell proteome was treated with varying concentrations of HNE (5, 10, 50, 100 and 500 μM) for 60 min and then the IA-labeling profile of each reaction was quantitatively compared to a DMSO-control sample by isoTOP-ABPP.
By combining the R values at all 5 HNE concentrations, we could extrapolate IC50 values for […] of IA probe-labeling for ˜700 of the 1100 cysteines (FIG. 3a).
(§4) HNE was purchased from EMD biosciences, 15d-PGJ2 was purchased from Cayman Chemicals and 2-HD was purchased from Santa Cruz Biotechnology. Proteome samples were diluted to a 4 mg protein/mL solution in PBS. For each profiling experiment, one aliquot of the proteome sample (0.5 mL) was treated with 100 μM of LDE using 5 μL of a 10 mM stock and the other aliquot was treated with 5 μL of either ethanol (for HNE and 15d-PGJ2) or DMSO (for 2-HD) as control. For the concentration-dependent profiling experiments using HNE, aliquots of the proteomes (0.5 mL each) were treated with 5, 10, 50, 100 and 500 μM of HNE using 5 μL of 0.5, 1.0, 5, 10 and 50 mM of stock solution, respectively. […]

ZAK = ZAK (Homo sapiens, UniProt Q9NYL2); test: competitive isoTOP-ABPP, MDA-MB-231 soluble proteome; type: binding; design: directly in native proteomes; endogenous in cells; host or cells: MDA-MB-231; details: 60 min; for R value (isoTOP-ABPP ratio heavy/light) for IA-labeled cysteine of ZAK: 100 μM LDE, peptide FDDLQFFENC*GGGSFGSVYR
ZAK, sequence (Q9NYL2 whole entry): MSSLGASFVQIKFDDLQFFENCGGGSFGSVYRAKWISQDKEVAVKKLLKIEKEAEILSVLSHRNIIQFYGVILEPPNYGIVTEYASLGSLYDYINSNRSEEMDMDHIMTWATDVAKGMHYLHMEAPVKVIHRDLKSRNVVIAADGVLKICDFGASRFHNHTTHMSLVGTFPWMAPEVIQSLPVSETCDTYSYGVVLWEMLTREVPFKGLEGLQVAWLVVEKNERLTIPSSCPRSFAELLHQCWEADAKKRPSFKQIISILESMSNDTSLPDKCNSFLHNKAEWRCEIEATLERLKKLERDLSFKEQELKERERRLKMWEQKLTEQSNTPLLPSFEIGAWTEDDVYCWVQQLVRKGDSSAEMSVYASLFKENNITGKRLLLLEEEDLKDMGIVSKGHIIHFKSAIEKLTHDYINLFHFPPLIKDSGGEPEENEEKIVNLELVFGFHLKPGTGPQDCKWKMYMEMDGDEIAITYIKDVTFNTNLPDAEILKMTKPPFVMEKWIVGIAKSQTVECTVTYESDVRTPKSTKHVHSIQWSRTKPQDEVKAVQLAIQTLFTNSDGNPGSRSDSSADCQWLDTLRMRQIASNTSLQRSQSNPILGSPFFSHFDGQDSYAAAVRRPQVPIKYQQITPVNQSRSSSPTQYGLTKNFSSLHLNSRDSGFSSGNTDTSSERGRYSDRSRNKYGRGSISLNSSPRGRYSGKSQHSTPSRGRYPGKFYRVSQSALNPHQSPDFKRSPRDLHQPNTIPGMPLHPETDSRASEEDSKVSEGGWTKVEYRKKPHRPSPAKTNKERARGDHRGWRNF
Experimental: as §1, §2, §3
as §4, with “respectively. After 60 minutes of treatment at room temperature, both the LDE-treated and control aliquots were passed through a NAP-5 Sephadex column (GE healthcare) to remove any unreacted LDE. The volume of each aliquot was increased to 1 mL with the concentration at 2 mg/mL after this step.” for “respectively.”

FN3KRP = biological target: T1, FN3KRP (Homo sapiens, UniProt Q9HA64); test: as above; type: binding; details: 100 μM LDE, 60 min; peptide ATGHSGGGC*ISQGR
T1 construct: directly in native proteomes; endogenous in cells; host or cells: MDA-MB-231
T1 sequence (Q9HA64 1-309): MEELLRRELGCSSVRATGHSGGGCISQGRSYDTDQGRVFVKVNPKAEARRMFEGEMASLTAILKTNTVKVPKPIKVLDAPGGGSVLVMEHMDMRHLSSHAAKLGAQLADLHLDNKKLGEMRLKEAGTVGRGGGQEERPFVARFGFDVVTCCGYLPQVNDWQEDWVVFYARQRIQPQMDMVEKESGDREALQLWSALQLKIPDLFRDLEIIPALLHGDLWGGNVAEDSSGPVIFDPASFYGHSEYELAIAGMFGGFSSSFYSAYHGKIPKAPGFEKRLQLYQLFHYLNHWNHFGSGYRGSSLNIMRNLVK
Experimental: as §1, §2, §3
HNE was purchased from EMD biosciences, 15d-PGJ2 was purchased from Cayman Chemicals and 2-HD was purchased from Santa Cruz Biotechnology. Proteome samples were diluted to a 4 mg protein/mL solution in PBS. For each profiling experiment, one aliquot of the proteome sample (0.5 mL) was treated with 100 μM of LDE using 5 μL of a 10 mM stock and the other aliquot was treated with 5 μL of either ethanol (for HNE and 15d-PGJ2) or DMSO (for 2-HD) as control. For the concentration-dependent profiling experiments using HNE, aliquots of the proteomes (0.5 mL each) were treated with 5, 10, 50, 100 and 500 μM of HNE using 5 μL of 0.5, 1.0, 5, 10 and 50 mM of stock solution, respectively. After 60 minutes of treatment at room temperature, both the LDE-treated and control aliquots were passed through a NAP-5 Sephadex column (GE healthcare) to remove any unreacted LDE. The volume of each aliquot was increased to 1 mL with the concentration at 2 mg/mL after this step.
Each of the control and LDE-treated proteome samples (˜2 mg protein/mL in 1 mL volume) was treated with 100 μM of IA-probe using 10 μL of a 10 mM stock in DMSO. The labeling reactions were incubated at room temperature for 1 hour. Click chemistry (acetylene-azide cycloaddition) was performed by the addition of 100 μM of either the Heavy-TEV-Tag (for the control sample) or Light-TEV-Tag (for the LDE-treated sample) (20 μL of a 5 mM stock), 1 mM TCEP (fresh 50× stock in water), 100 μM ligand (17× stock in DMSO:t-Butanol 1:4) and 1 mM CuSO4 (50× stock in water). Samples were allowed to react at room temperature for 1 hour. After the click chemistry step, the light and heavy-labeled samples were mixed together and centrifuged (5900×g, 4 min, 4° C.) to pellet the precipitated proteins.
The pellets were washed twice in cold MeOH, after which the pellet was solubilized in PBS containing 1.2% SDS via sonication and heating (5 min, 80° C.). Samples were subjected to streptavidin enrichment of probe-labeled proteins, sequential on-bead trypsin and TEV digestion, and liquid chromatography-mass spectrometry (LC-MS) analysis according to the published isoTOP-ABPP protocol^30. […]

Row | Compound | proteome reactivity profile, high sensitivity (R>5) cysteine targets [1] | IC50 ([1]; ~700 of 1100 cysteines, 5 HNE concentrations, read-out: IC50 for blockade of IA probe-labeling, vast majority of cysteines) [µM] | R value (isoTOP-ABPP ratio heavy/light) for IA-labeled cysteine of ZAK (ZAK) | blockade of IA-probe labeling of Cys22 of ZAK (ZAK; 100 μM) | R value (isoTOP-ABPP ratio heavy/light) for IA-labeled cysteine of FN3KRP (FN3KRP)
1 | CCCCCC(O)/C=C/C=O (centres unmarked) [4-HNE, 4-Hydroxynonenal] | targeting several cysteines in the proteome | > 100 | >15 | completely blocked | >15
2 | CCCCCCCCCCCCC/C=C/C=O [2-HD, 2-trans-hexadecenal] | no detectable high sensitivity (R>5) targets | – | 1.05 | – | 1.03
3 | CCCCC/C=C/C=C1/C(=O)C=C[C@@H]1C/C=C\CCCC(=O)O [PGJ2, 15-deoxy-Δ12,14-prostaglandin J2] | targeting several cysteines in the proteome | – | 4.24 | – | 1.62
